In patent publication US8268817B2, “Substituted oxazole ketone modulators of fatty acid amide hydrolase” (The Scripps Research Institute, priority 2006, dated 2012):

Assays:
[1] = rat; cited from earlier work
[2] = rats; cited from earlier work
[3] = rats; cited from earlier work; remark: listed apart in the source
[4] = biological target: T1, FAAH (solubilized liver plasma membrane extract) (Rattus norvegicus, UniProt P97612); experiment: FAAH enzyme assay, hydrolysis of 14C-oleamide to oleic acid; assay type: biochemical; details: 14C-oleamide substrate, pH 9.0, 20-23° C., Dixon method
T1 construct: using a solubilized liver plasma membrane extract containing FAAH; from tissue; host or cells: liver (plasma membrane extract, solubilized)
T1 sequence (P97612 1-579): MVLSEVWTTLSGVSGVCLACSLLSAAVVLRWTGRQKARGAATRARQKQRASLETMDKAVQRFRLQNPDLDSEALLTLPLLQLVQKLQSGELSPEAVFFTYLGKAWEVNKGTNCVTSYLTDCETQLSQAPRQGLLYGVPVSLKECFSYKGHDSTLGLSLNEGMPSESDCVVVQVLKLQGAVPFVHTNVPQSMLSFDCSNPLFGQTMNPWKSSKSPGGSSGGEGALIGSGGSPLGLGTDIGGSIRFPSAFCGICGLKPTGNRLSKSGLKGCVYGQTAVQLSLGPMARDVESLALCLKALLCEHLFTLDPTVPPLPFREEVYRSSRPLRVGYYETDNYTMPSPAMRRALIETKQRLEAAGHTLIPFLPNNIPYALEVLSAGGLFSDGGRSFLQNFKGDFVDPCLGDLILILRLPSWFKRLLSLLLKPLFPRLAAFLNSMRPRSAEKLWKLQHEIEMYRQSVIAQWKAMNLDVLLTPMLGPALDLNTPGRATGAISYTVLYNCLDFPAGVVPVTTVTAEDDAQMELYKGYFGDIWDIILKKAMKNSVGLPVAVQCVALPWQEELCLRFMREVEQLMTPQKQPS
Method: K; values were determined by the Dixon. Method (x-intercepts of weighted linear fits of [I] versus 1/rate plots at constant substrate concentration, which were converted to Ki values using the formula Ki=−xint/[1+[S]/Km]).

[5] = model of multiple sclerosis; cited from earlier work
FAAH = biological target: T2, FAAH (Homo sapiens, UniProt O00519); details: cited from earlier work
T2 sequence (O00519 1-579): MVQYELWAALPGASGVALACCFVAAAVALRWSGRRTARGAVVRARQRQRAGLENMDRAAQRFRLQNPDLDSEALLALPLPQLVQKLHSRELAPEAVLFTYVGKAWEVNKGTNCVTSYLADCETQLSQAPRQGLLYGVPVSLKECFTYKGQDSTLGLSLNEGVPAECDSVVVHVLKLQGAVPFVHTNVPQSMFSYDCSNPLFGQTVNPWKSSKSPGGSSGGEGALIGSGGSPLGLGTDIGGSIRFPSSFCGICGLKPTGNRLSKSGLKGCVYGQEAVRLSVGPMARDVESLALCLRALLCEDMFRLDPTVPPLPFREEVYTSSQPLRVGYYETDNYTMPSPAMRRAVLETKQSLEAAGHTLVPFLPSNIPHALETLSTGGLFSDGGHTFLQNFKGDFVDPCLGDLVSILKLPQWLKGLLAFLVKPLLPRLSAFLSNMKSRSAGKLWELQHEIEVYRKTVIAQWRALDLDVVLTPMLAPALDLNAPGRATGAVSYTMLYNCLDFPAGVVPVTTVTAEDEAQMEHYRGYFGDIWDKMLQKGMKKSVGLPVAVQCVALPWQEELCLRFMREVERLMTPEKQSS

[6] = rats; cited from earlier work; remark: listed apart in the source
[7] = rats; cited from earlier work; remark: listed apart in the source
[8] = rats; cited from earlier work; remark: listed apart in the source

NC(=O)c1cccc(-c2cccc(OC(=O)NC3CCCCC3)c2)c1 [URB-597]
analgesic efficacy in formalin test [1]: analgesic efficacy | efficacy in zero plus maze model of anxiety [2]: efficacy | analgesic efficacy in hot plate test [3]: analgesic efficacy

O=C(CCCCCCc1ccccc1)c1ncc(S(=O)(=O)C(F)(F)F)o1 [Example 22, 7-Phenyl-1-(5-(trifluoromethylsulfonyl)oxazol-2-yl)heptan-1-one]
Ki [4]: > 0.002 µM

CCCCCCCCCCCCCCCCS(=O)(=O)F [AM374]
effect on spasticity in CREAE mice [5]: significantly reduce spasticity

O=C(CCCCCCc1ccccc1)c1ncc(C(=O)N2CCSCC2)o1 [Example 6, 7-Phenyl-1-(5-(thiomorpholine-4-carbonyl)oxazol-2-yl)heptan-1-one]
Ki [4]: 0.01 µM

O=C(CCCCCCc1ccccc1)c1ncc(C(=O)N2CCCCC2)o1 [Example 5, 7-Phenyl-1-(5-(piperidine-1-carbonyl)oxazol-2-yl)heptan-1-one]
Ki [4]: 0.008 µM

O=C(CCCCCCc1ccccc1)c1ncc(-c2ccccn2)o1 [OL-135]
inhibition of FAAH (FAAH): potent inhibitor | analgesic activity in tail emersion test [6]: analgesic activity | analgesic efficacy in hot plate test [3]: analgesic activity

O=C(CCCCCCc1ccccc1)c1ncc(C(=O)N2CCOCC2)o1 [Example 4, 1-(5-(Morpholine-4-carbonyl)oxazol-2-yl)-7-phenylheptan-1-one]
Ki [4]: 0.024 µM

CN1CCN(C(=O)c2cnc(C(=O)CCCCCCc3ccccc3)o2)CC1 [Example 7, 1-(5-(4-Methylpiperazine-1-carbonyl)oxazol-2-yl)-7-phenylheptan-1-one]
Ki [4]: 0.08 µM

Cc1nc(-c2ccccc2)c(-c2ccccc2)n1CCCCCCNC(=O)Oc1ccccc1F [BMS-1]
analgesic effect in Hargraves test [7]: analgesic effect | analgesic effect in Chung spinal nerve ligation model [8]: analgesic effect

CNC(=O)c1cnc(C(=O)CCCCCCc2ccccc2)o1 [Example 8, N-Methyl-2-(7-phenylheptanoyl)oxazole-5-carboxamide]
Ki [4]: 0.007 µM
